Measurements taken from patent publication US11548860B2, “Pharmacophores, compounds and methods having application in the treatment of cancer through inhibition of CYP17A1 and CYP19A1” (MANGOSUTHU UNIVERSITY OF TECHNOLOGY, priority 2015, dated 2023).

Experiments:
CYP2C19 = CYP2C19 (Homo sapiens (Human), UniProt P33261); test: CYP inhibition against major 5 human liver CYPs in E. coli CYPEX membranes: CYP2C19 ((S)-mephenytoin); assay type: in vitro ADME; settings: bactosome mix, 10 min, 37° C.
Procedure: (§1) Test compounds and control inhibitors were prepared as stocks in DMSO from the solid compound. The stocks were diluted in 0.1 M phosphate buffer (pH 7.4) at four times the final concentration prior to addition into the incubation tubes. The final DMSO concentration was 1%. […] Catalogue number CYP/XG001, Batch XG001001). Selective and FDA accepted substrates for each isoform were used at a concentration around the Km for each substrate. Activity of each isoform was assessed by measuring the appearance of an isoform-specific metabolite. A cocktail of 5 isoform-specific inhibitors was used as a positive control. […] Reactions were stopped by addition of 100 μl MeOH/1 μM Tolbutamide (internal standard). The quenched samples were mixed thoroughly and protein precipitated at −20° C. overnight. Samples were centrifuged at 2,500×g (3,400 rpm) for 20 minutes, 4° C. The supernatants were transferred to a 96 well-plate and analysed by LC-MS/MS. […] The LC-MS/MS peak responses (CYP metabolite peak area/internal standard peak area) for each test compound or positive control inhibitor were used and the response for each sample was expressed as a percentage of an uninhibited control (DMSO incubation).

CYP2C9 = CYP2C9 (Homo sapiens (Human), UniProt P11712); test: CYP inhibition against major 5 human liver CYPs in E. coli CYPEX membranes: CYP2C9 (diclofenac); assay type: in vitro ADME; settings: bactosome mix, 10 min, 37° C.
Chain of CYP2C9 (P11712 whole entry): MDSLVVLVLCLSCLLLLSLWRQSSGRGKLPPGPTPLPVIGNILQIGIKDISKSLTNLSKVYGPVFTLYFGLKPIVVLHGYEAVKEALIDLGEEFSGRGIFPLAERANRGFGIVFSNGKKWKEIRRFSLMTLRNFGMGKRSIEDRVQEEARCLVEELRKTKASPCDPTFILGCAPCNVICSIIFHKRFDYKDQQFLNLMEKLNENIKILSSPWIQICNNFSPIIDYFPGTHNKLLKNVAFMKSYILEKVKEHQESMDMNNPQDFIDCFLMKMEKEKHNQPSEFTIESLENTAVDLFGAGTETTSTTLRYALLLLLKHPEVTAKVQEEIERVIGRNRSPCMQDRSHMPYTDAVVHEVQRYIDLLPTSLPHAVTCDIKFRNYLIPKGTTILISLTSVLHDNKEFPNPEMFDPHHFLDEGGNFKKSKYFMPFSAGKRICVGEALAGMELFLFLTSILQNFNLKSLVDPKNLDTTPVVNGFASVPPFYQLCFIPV

CYP17A1 = CYP17A1 (Homo sapiens (Human), UniProt P05093); test: CYP17A1 inhibition, CYP17A1 bactosomes, progesterone substrate, LC-MS/MS; assay type: biochemical; settings: for IC50: 0.1 μM progesterone, 20 min, 37° C.
Chain of CYP17A1 (P05093 whole entry): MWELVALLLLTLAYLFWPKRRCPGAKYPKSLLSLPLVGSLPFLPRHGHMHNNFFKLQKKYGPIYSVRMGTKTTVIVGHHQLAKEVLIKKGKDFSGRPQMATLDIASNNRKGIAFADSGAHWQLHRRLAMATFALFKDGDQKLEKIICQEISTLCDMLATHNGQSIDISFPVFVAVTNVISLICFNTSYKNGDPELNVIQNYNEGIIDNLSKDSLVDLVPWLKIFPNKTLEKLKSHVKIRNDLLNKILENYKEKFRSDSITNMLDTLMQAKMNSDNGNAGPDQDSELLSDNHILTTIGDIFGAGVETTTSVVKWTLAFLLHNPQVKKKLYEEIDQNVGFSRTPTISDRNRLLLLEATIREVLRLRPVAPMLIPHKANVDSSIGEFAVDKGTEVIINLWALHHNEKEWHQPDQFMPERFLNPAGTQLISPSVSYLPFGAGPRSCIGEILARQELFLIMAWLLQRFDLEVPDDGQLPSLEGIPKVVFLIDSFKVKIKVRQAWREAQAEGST
Procedure: CYP17A1 inhibition was measured using 20 pmol/ml CYP17A1 bactosomes (Cypex, Dundee, UK) and 0.1 μM progesterone as a substrate and 1 mM NADPH in 50 mM potassium phosphate buffer pH 7.4 containing 5 mM magnesium chloride. Inhibitors were dissolved in DMSO and serially diluted in seven ½ log steps, final concentrations ranging from 50 μA to 50 nM. Reaction volume was 100 μl and final DMSO concentration was 1% (v/v). Reactions were started by the addition of NADPH and incubated at 37° C. for 20 minutes with shaking at 1800 rpm on a Bioshake IQ (Q-Instruments, Jena, Germany). Reactions were terminated by the addition of 200 μl methanol containing 1 μM tolbutamide as an internal standard.

CYP1A2 = CYP1A2 (Homo sapiens (Human), UniProt P05177); test: CYP inhibition against major 5 human liver CYPs in E. coli CYPEX membranes: CYP1A2 (tacrine); assay type: in vitro ADME; settings: bactosome mix, 10 min, 37° C.
Chain of CYP1A2 (P05177 whole entry): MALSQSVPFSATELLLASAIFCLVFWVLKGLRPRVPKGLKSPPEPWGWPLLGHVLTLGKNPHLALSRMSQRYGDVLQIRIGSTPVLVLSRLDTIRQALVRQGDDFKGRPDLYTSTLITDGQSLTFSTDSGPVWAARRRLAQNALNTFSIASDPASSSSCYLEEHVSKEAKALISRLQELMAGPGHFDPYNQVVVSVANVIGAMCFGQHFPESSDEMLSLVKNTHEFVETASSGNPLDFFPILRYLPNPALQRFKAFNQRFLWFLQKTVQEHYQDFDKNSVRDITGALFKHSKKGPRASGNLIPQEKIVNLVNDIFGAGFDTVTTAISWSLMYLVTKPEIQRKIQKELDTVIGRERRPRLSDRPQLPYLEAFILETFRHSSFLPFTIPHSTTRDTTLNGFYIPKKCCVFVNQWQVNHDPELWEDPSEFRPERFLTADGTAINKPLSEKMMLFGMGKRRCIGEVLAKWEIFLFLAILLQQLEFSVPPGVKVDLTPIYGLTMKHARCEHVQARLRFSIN
Procedure: as §1

[1] = Toxicity studies on the molecules in Table 2
CYP2D6 = CYP2D6 (Homo sapiens (Human), UniProt P10635); test: CYP inhibition against major 5 human liver CYPs in E. coli CYPEX membranes: CYP2D6 (bufuralol); assay type: in vitro ADME; settings: bactosome mix, 10 min, 37° C.
Chain of CYP2D6 (P10635 whole entry, canonical isoform): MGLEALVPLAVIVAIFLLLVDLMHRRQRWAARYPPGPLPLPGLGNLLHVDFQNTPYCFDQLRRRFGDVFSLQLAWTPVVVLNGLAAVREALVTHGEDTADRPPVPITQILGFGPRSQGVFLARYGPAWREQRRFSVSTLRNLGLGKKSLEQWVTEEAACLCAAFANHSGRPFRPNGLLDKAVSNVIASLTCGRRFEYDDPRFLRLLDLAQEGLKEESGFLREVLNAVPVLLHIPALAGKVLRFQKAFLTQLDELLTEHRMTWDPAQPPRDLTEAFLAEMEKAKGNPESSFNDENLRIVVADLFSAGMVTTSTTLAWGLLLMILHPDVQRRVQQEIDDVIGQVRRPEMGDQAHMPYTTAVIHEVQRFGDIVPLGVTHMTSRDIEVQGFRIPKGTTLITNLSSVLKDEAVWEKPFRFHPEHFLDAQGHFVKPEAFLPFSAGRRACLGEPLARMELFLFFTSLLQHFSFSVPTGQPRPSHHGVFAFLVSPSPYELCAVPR
Procedure: Test compounds and control inhibitors were prepared as stocks in DMSO from the solid compound. The stocks were diluted in 0.1 M phosphate buffer (pH 7.4) at four times the final concentration prior to addition into the incubation tubes. The final DMSO concentration was 1%. […] Catalogue number CYP/XG001, Batch XG001001). Selective and FDA accepted substrates for each isoform were used at a concentration around the Km for each substrate. Activity of each isoform was assessed by measuring the appearance of an isoform-specific metabolite. A cocktail of 5 isoform-specific inhibitors was used as a positive control. […] Reactions were stopped by addition of 100 μl MeOH/1 μM Tolbutamide (internal standard). The quenched samples were mixed thoroughly and protein precipitated at −20° C. overnight. Samples were centrifuged at 2,500×g (3,400 rpm) for 20 minutes, 4° C. The supernatants were transferred to a 96 well-plate and analysed by LC-MS/MS. The following LC-MS/MS conditions were used to analyse the 5CYP inhibition samples: • Column: Waters ACE Excel C18-AR, 50×2.1 mm, 2 μm • Mobile phase A: MilliQ water+0.1% formic acid • Mobile phase B: Methanol+0.1% formic acid • Flow rate: 0.8 ml/min The CYP activities for each test compound/positive control inhibitor at each concentration were converted to % of control activity (CA). The LC-MS/MS peak responses (CYP metabolite peak area/internal standard peak area) for each test compound or positive control inhibitor were used and the response for each sample was expressed as a percentage of an uninhibited control (DMSO incubation).

Solubility in DMSO = assay type: physicochemical
CYP3A4 = CYP3A4 (Homo sapiens (Human), UniProt P08684); test: CYP inhibition against major 5 human liver CYPs in E. coli CYPEX membranes: CYP3A4 (midazolam); assay type: in vitro ADME; settings: bactosome mix, 10 min, 37° C.
Chain of CYP3A4 (P08684 whole entry): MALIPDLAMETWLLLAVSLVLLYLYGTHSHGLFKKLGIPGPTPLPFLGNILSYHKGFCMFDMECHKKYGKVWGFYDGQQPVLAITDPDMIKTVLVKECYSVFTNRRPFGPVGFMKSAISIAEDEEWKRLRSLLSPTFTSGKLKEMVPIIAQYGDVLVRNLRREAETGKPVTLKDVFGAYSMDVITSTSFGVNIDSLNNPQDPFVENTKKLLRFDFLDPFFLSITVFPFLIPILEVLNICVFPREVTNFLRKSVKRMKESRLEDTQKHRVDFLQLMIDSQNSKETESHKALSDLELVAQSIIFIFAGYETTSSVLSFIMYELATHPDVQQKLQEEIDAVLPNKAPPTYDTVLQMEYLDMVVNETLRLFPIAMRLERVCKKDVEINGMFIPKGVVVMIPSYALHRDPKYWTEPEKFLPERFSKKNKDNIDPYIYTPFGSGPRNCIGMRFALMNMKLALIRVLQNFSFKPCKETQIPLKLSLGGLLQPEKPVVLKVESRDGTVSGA
Procedure: as §1

[2] = test system: CYP1A2, CYP2C9, CYP2C19, CYP2D6, and CYP3A4; test: Summary of inhibition of metabolic CYP450 isoforms (5 CYP panel); assay type: in vitro ADME, human; settings: Table 2
CYP19A1 = CYP19A1 (Homo sapiens (Human), UniProt P11511); test: CYP19A1 inhibition, CYP19/MFC High Throughput Inhibitor Screen Kit, fluorescence; assay type: biochemical
Chain of CYP19A1 (P11511 whole entry): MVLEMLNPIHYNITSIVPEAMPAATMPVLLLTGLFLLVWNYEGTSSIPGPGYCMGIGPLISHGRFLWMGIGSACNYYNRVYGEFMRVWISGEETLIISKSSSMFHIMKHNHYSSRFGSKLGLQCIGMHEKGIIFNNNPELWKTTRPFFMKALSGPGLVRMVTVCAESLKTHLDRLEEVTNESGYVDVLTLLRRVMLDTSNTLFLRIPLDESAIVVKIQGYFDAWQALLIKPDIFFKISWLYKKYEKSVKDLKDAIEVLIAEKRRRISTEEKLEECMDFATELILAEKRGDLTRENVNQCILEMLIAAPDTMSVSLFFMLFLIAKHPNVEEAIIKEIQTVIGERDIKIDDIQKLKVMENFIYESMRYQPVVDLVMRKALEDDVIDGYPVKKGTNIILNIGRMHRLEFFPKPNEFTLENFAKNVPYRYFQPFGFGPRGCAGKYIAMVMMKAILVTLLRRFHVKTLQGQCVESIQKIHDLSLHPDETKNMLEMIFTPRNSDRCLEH
Procedure: Test compounds and control inhibitors were prepared as stocks in either Acetonitrile or DMSO from the solid compound. Compounds were serially diluted in ½ log steps in the same solvent. CYP19A1 inhibition experiments were performed using the CYP19/MFC High Throughput Inhibitor Screen Kit (Corning). Test compounds were tested in seven concentrations: […] CYP19A1 reactions were performed in black 96 well-plates (Greiner) according to the manufacturer's instructions. […] Final organic solvent concentrations were either 4% (v/v) acetonitrile or 0.5% (v/v) Dimethyl sulfoxide. The plates were covered with self-adhesive film lids and incubated for 10 minutes at 37° C. Reactions were terminated by the addition of 75 μl Stop Solution (100 mM Tris base in acetonitrile: MilliQ water (80:20). […] The CYP activities for each test compound/positive control inhibitor at each concentration were converted to % of control activity (CA). The LC-MS/MS peak responses (CYP metabolite peak area/internal standard peak area) for each test compound or positive control inhibitor were used and the response for each sample was expressed as a percentage of an uninhibited control (DMSO incubation).

CYP17A1 and CYP19A1 = test: Classification as Dual Inhibitor (inhibitor of both CYP17A1 and CYP19A1); settings: inhibitors of both CYP17A1 and CYP19A1

Chain of CYP2C19 (P33261 whole entry, canonical isoform): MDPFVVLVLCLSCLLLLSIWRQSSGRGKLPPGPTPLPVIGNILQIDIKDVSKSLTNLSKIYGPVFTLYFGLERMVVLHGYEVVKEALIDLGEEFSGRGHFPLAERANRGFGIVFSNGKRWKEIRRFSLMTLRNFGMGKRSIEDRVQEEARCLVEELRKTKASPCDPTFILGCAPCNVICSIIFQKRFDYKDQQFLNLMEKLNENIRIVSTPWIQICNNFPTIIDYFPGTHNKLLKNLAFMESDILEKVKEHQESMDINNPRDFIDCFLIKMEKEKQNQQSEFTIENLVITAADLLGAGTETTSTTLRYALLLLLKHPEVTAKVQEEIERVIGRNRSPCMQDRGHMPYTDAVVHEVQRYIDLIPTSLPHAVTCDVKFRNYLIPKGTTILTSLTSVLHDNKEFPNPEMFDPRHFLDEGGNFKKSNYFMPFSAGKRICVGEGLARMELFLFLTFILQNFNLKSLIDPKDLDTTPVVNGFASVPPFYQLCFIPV

| inhibitory potency of CYP17A1, level in words (CYP17A1; Table 2) | IC50 (CYP2D6) | Soluble in DMSO (Solubility in DMSO) | inhibition of various CYP450 isoforms (drug-drug interaction) [2] | SMILES | IC50 (CYP2C19) | IC50 (CYP2C9) | IC50 (CYP17A1) | IC50 (CYP1A2) | safety profile [1] | IC50 (CYP3A4) | IC50 (CYP19A1; 25 μM MFC, 10 min, 37° C.) | IC50 values against CYP19A1, potency level in words (CYP19A1; Table 2) | Dual Inhibitor classification (CYP17A1 and CYP19A1) |
| --- | --- | --- | --- | --- | --- | --- | --- | --- | --- | --- | --- | --- | --- |
| micromolar levels | > 50 µM | Yes | – | CCCC(=O)Nc1ccc(C(=O)C(C)OC(=O)c2n[nH]c3ccccc23)cc1 (racemic) [Compound 6, 1-(4-butanamidophenyl)-1-oxopropan-2-yl-1H-indazole-3-carboxylate] | 41.2 µM | 2.5 µM | > 50 µM | > 50 µM | excellent safety profiles | > 50 µM | – | – | – |
| – | 3.3 µM | Yes | inhibit various CYP450 isoforms | Cc1cccc(C(=O)OCCOc2ccc(S(N)(=O)=O)cc2)c1N [Compound 4, 2-(4-sulfamoylphenoxy) ethyl 2-amino-3-methylbenzoate] | – | – | – | – | reasonably good safety profiles | – | – | – | – |

| SMILES | inhibitory potency of CYP17A1, level in words (CYP17A1; Table 2) | IC50 (CYP2D6) | Soluble in DMSO (Solubility in DMSO) | inhibition of various CYP450 isoforms (drug-drug interaction) [2] | IC50 (CYP2C19) | IC50 (CYP2C9) | IC50 (CYP17A1) | IC50 (CYP1A2) | safety profile [1] | IC50 (CYP3A4) | IC50 (CYP19A1; 25 μM MFC, 10 min, 37° C.) | IC50 values against CYP19A1, potency level in words (CYP19A1; Table 2) | Dual Inhibitor classification (CYP17A1 and CYP19A1) |
| --- | --- | --- | --- | --- | --- | --- | --- | --- | --- | --- | --- | --- | --- |
| O=C1COc2cc(NC(=O)c3cc(NC(=O)c4cn[nH]c4)ccc3Cl)ccc2N1 [Compound 12, N-{4-chloro-3-[(3-oxo-3,4-dihydro-2H-1,4-benzoxazin-7-yl)carbamoyl]phenyl}-1H-pyrazole-4-carboxamide] | – | > 50 µM | Yes | – | > 50 µM | 22.5 µM | > 50 µM | > 50 µM | excellent safety profiles | 18.3 µM | 0.06 µM | sub-micromolar inhibitory potency levels | Dual Inhibitors |
